This is an account of results in patent US5582813A, “Iodine-containing fluorocarbon contrast agents” (Alliance Pharmaceutical Corp., priority 1993, dated 1996).

Series [1] can be described thus: In vitro opacity to X-rays of compounds in hexane solution (Philips Tomoscan LX). Type of series: physicochemical. Conditions: 0.34 mol/L in hexane; 120 kV, 175 mA. The protocol: In order to determine the relative radiopacity of the compounds used in the present invention to X-rays, we undertook an in vitro study to compare the radiopacity of the above compound (IA) in relation to the radiopacity of perfluorooctyl bromide.
A solution of Compound IA was prepared having a concentration of 0.34 mol/L in hexane. A second solution of perfluorooctyl bromide (PFOB) with the same concentration in hexane was also prepared. The opacity to X-rays of the respective compounds in the hexane solutions was determined using a Philips Tomoscan LX 120 kV, 175 mA apparatus.
Following the procedure described in Example 1, we also measured the opacity to X-rays of Compound IIIA. As described, a solution of Compound IIIA was prepared at a concentration of 0.34 mol/L in hexane.
We also measured the radiopacity of each of the compositions using the in vitro test described in Example 1, where 0.34 mol/L solutions of the compositions were prepared in hexane and scanned using a Philips Tomoscan LX 120 kV, 175 mA apparatus.

A further series has as its system liver. Briefly: In vivo radiopacity, rabbit liver imaging. Set-up: species or system rabbits. Conditions: 0.39 g of Compound IA. The procedure: In order to determine the ability of the compositions of the present invention to operate as effective contrast enhancement agents, we undertook an in vivo study in rabbits to image their livers.
In the study, 3 rabbits were injected with the emulsion of Example 5 at a dose of 3 mL of emulsion per kg of animal, i.e., 2.34 g/kg (4.2 mM of Compound IA), at the rate of 0.5 mL/min.
The radiopacity of the liver and spleen of each rabbit was then measured. The animals were held in a cage and radiopacity was measured using a Philips Tomoscan LX scanner at 120 kV and 175 mA, with continuous 5 mm scans slice with 7 mm intervals. The duration of each scan was 1.2 seconds. These measurements were taken before the injection, then at 24 hours, 48 hours, 7 days, 15 days, and 30 days after the injection.
The results from this study are shown in FIG. 2, which is a bar graph showing the comparison between the radiopacity of the liver (as determined by the increase in Hounsfield units) observed with the emulsion of Example 5 and a PFOB emulsion (Example 6), at 24 hours and 48 hours after injection. The concentration of the emulsion of Example 5 was at a dose of […]. The concentration of the PFOB emulsion was at a dose of 2.7 g/kg body weight (5.4 mM of Perflubron/kg).

In a further series the test system is mice. Nature of the series: Toxicity, intraperitoneal injection in mice. It counts as in vivo. Particulars: 10 mice, about 45 g/kg, one month. The source says:
(§1) Beyond radiopacity and stability, the compounds used in the present invention are biocompatible. They are tolerated in high doses in animals. For example, in intraperitoneal administration in mice, the mice were still alive at the end of the protocol, one month post injection, even after doses of up to 45 g/kg of the iodinated fluorinated compounds used in the present invention had been injected. Further, in intravenous administration to mice of the compounds used in the present invention in emulsified form, the mice lived past the end of the protocol, one month post injection of doses up to 8 g/kg.
(§2) In order to determine the toxicity of Compound IA, we injected mice intraperitoneally with the compound. In the experiment, 10 mice were interperitoneally injected with a dose of about 45 g/kg per animal of Compound IA.
(§3) Compound IIIA was also tested for toxicity, following the procedure described in Example 2. A similar tolerance of greater than 45 g/kg animal weight was observed.
(§4) Each of the composition were intraperitoneally injected into mice at doses of 50 g/kg. All of the mice so injected survived and were alive past the end of the protocol, 30 days post injection.

A short description of series [2]: Toxicity, intraperitoneal injection in mice. Type of series: in vivo. Conditions: mouse, in vivo, ip; mice, intraperitoneal, g/kg animal weight; read-out: tolerance.
Source text: as §1, §2, §3, §4

A value given as a limit tells only on which side of the number the result lay.

In the case of `CCCCCCC(I)=CC(F)(F)C(F)(F)C(F)(F)C(F)(F)C(F)(F)C(F)(F)F` [Compound IA, C6 F13 --CH=CI--C6 H13], the “radiopacity relative to PFOB” value in series [1] is listed as “approximately four”. For the same molecule, the “amount of Perflubron giving equivalent contrast enhancement, relative to Compound IA” value with liver is reported as 7 times. Besides, in the series with mice, the “survival after intraperitoneal injection” value was “all animals survived and were thriving, showing no ill effects”.

With `CCCCCCC(I)=CC(F)(F)C(F)(F)C(F)(F)C(F)(F)C(F)(F)C(F)(F)C(F)(F)C(F)(F)F` [Compound IIIA, C8 F17 --CH=CI--C6 H13], the “opacity to X-rays (in words)” value in series [1] is recorded as “A similar opacity was observed for Compound IIIA as was observed for Compound IA”. Besides, the MTD in series [2] was above 45000 mg/kg.
